Experimental data: PubChem BioAssay (NCI)
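Test compounds were applied to cells in 96-well plates for 48 hours at 5 doses. GI50 is the concentration that inhibits growth by half. TGI: concentration producing complete growth inhibition.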

What was measured:
Experiment in all cases: DTP human tumour cell line panel, 48 h
786-0 renal = system: 786-0 renal
A498 renal = system: A498 renal
A549 NSCLC = system: A549 NSCLC
ACHN renal = system: ACHN renal
BT-549 breast = system: BT-549 breast
CAKI-1 renal = system: CAKI-1 renal
CCRF-CEM leukemia = system: CCRF-CEM leukemia
DU-145 prostate = system: DU-145 prostate
EKVX NSCLC = system: EKVX NSCLC
HCC-2998 colon = system: HCC-2998 colon
HCT-116 colon = system: HCT-116 colon
HCT-15 colon = system: HCT-15 colon
HL-60(TB) leukemia = system: HL-60(TB) leukemia
HOP-62 NSCLC = system: HOP-62 NSCLC
HOP-92 NSCLC = system: HOP-92 NSCLC
HS 578T breast = system: HS 578T breast
HT29 colon = system: HT29 colon
IGROV1 ovarian = system: IGROV1 ovarian
K-562 leukemia = system: K-562 leukemia
KM12 colon = system: KM12 colon
LOX IMVI melanoma = system: LOX IMVI melanoma
M14 melanoma = system: M14 melanoma
MALME-3M melanoma = system: MALME-3M melanoma
MDA-MB-231 breast = system: MDA-MB-231 breast
MOLT-4 leukemia = system: MOLT-4 leukemia
NCI-H226 lung = system: NCI-H226 lung
NCI-H23 lung = system: NCI-H23 lung
NCI-H460 lung = system: NCI-H460 lung
NCI-H522 lung = system: NCI-H522 lung
NCI/ADR-RES ovarian = system: NCI/ADR-RES ovarian
OVCAR-3 ovarian = system: OVCAR-3 ovarian
OVCAR-4 ovarian = system: OVCAR-4 ovarian
OVCAR-5 ovarian = system: OVCAR-5 ovarian
OVCAR-8 ovarian = system: OVCAR-8 ovarian
PC-3 prostate = system: PC-3 prostate
RPMI-8226 leukemia = system: RPMI-8226 leukemia
SF-268 CNS = system: SF-268 CNS
SF-539 CNS = system: SF-539 CNS
SK-MEL-2 melanoma = system: SK-MEL-2 melanoma
SK-MEL-28 melanoma = system: SK-MEL-28 melanoma
SK-MEL-5 melanoma = system: SK-MEL-5 melanoma
SK-OV-3 ovarian = system: SK-OV-3 ovarian
SN12C renal = system: SN12C renal
SNB-19 CNS = system: SNB-19 CNS
SNB-75 CNS = system: SNB-75 CNS
SR leukemia = system: SR leukemia
SW-620 colon = system: SW-620 colon
T-47D breast = system: T-47D breast
TK-10 renal = system: TK-10 renal
U251 CNS = system: U251 CNS
UACC-257 melanoma = system: UACC-257 melanoma
UACC-62 melanoma = system: UACC-62 melanoma
UO-31 renal = system: UO-31 renal

**Q.** What does the source list for `CC(C)OC(=O)Nc1ccc(-c2nc(-c3cccc(OCCN4CCOCC4)c3)c(-c3ccnc(Br)c3)[nH]2)cc1`?
**A.** GI50 (786-0 renal): 1.24 µM; TGI (786-0 renal): 3.54 µM; GI50 (A498 renal): 1.23 µM; TGI (A498 renal): 4.12 µM; GI50 (A549 NSCLC): 3.49 µM; TGI (A549 NSCLC): > 100 µM; GI50 (ACHN renal): 3.22 µM; TGI (ACHN renal): > 100 µM; GI50 (BT-549 breast): 2.86 µM; TGI (BT-549 breast): > 100 µM; GI50 (CAKI-1 renal): 2.85 µM; TGI (CAKI-1 renal): > 100 µM; GI50 (CCRF-CEM leukemia): 2.46 µM; TGI (CCRF-CEM leukemia): > 100 µM; GI50 (DU-145 prostate): 4.8 µM; TGI (DU-145 prostate): > 100 µM; GI50 (EKVX NSCLC): 2.39 µM; TGI (EKVX NSCLC): 7.55 µM; GI50 (HCC-2998 colon): 3.1 µM; TGI (HCC-2998 colon): > 100 µM; GI50 (HCT-116 colon): 2.96 µM; TGI (HCT-116 colon): > 100 µM; GI50 (HCT-15 colon): 1.3 µM; TGI (HCT-15 colon): 4.26 µM; GI50 (HL-60(TB) leukemia): 1.87 µM; TGI (HL-60(TB) leukemia): 4.59 µM; GI50 (HOP-62 NSCLC): 3.04 µM; TGI (HOP-62 NSCLC): > 100 µM; GI50 (HOP-92 NSCLC): 2.45 µM; TGI (HOP-92 NSCLC): 7.99 µM; GI50 (HS 578T breast): 0.461 µM; TGI (HS 578T breast): 2.76 µM; GI50 (HT29 colon): 2.69 µM; TGI (HT29 colon): > 100 µM; GI50 (IGROV1 ovarian): 4.39 µM; TGI (IGROV1 ovarian): > 100 µM; GI50 (K-562 leukemia): 1.58 µM; TGI (K-562 leukemia): > 100 µM; GI50 (KM12 colon): 3.12 µM; TGI (KM12 colon): > 100 µM; GI50 (LOX IMVI melanoma): 1.56 µM; TGI (LOX IMVI melanoma): 3.39 µM; GI50 (M14 melanoma): 2.78 µM; TGI (M14 melanoma): 11.7 µM; GI50 (MALME-3M melanoma): 1.56 µM; TGI (MALME-3M melanoma): 3.39 µM; GI50 (MDA-MB-231 breast): 3.54 µM; TGI (MDA-MB-231 breast): 56.7 µM; GI50 (MOLT-4 leukemia): 2.2 µM; TGI (MOLT-4 leukemia): > 100 µM; GI50 (NCI-H226 lung): 3.75 µM; TGI (NCI-H226 lung): > 100 µM; GI50 (NCI-H23 lung): 1.99 µM; TGI (NCI-H23 lung): 4.72 µM; GI50 (NCI-H460 lung): 3.63 µM; TGI (NCI-H460 lung): > 100 µM; GI50 (NCI-H522 lung): 3.86 µM; TGI (NCI-H522 lung): > 100 µM; GI50 (NCI/ADR-RES ovarian): 4.3 µM; TGI (NCI/ADR-RES ovarian): > 100 µM; GI50 (OVCAR-3 ovarian): 4.91 µM; TGI (OVCAR-3 ovarian): > 100 µM; GI50 (OVCAR-4 ovarian): 4.79 µM; TGI (OVCAR-4 ovarian): > 100 µM; GI50 (OVCAR-5 ovarian): 4.97 µM; TGI (OVCAR-5 ovarian): > 100 µM; GI50 (OVCAR-8 ovarian): 4.32 µM; TGI (OVCAR-8 ovarian): > 100 µM; GI50 (PC-3 prostate): 2.96 µM; TGI (PC-3 prostate): > 100 µM; GI50 (RPMI-8226 leukemia): 0.549 µM; TGI (RPMI-8226 leukemia): 2.91 µM; GI50 (SF-268 CNS): 4.05 µM; TGI (SF-268 CNS): > 100 µM; GI50 (SF-539 CNS): 1.52 µM; TGI (SF-539 CNS): 5.46 µM; GI50 (SK-MEL-2 melanoma): 2.87 µM; TGI (SK-MEL-2 melanoma): 9.13 µM; GI50 (SK-MEL-28 melanoma): 1.67 µM; TGI (SK-MEL-28 melanoma): 4.16 µM; GI50 (SK-MEL-5 melanoma): 1.79 µM; TGI (SK-MEL-5 melanoma): 3.27 µM; GI50 (SK-OV-3 ovarian): 2.49 µM; TGI (SK-OV-3 ovarian): 5.8 µM; GI50 (SN12C renal): 4.29 µM; TGI (SN12C renal): > 100 µM; GI50 (SNB-19 CNS): 3.22 µM; TGI (SNB-19 CNS): > 100 µM; GI50 (SNB-75 CNS): 0.611 µM; TGI (SNB-75 CNS): 5.17 µM; GI50 (SR leukemia): 2.4 µM; TGI (SR leukemia): > 100 µM; GI50 (SW-620 colon): 3.12 µM; TGI (SW-620 colon): > 100 µM; GI50 (T-47D breast): 2.61 µM; TGI (T-47D breast): > 100 µM; GI50 (TK-10 renal): 6.15 µM; TGI (TK-10 renal): > 100 µM; GI50 (U251 CNS): 2.01 µM; TGI (U251 CNS): > 100 µM; GI50 (UACC-257 melanoma): 2.72 µM; TGI (UACC-257 melanoma): 8.82 µM; GI50 (UACC-62 melanoma): 2.31 µM; TGI (UACC-62 melanoma): 6.28 µM; GI50 (UO-31 renal): 2.84 µM; TGI (UO-31 renal): > 100 µM
